Data as given in the supplement of paper PMC10307832.

What was measured:
Assay in all cases: relative viability (nuclei count vs DMSO), 5 days (fraction); higher = more cells survive
[1] = compound: CN(c1ncccc1CNc1nc(Nc2ccc3c(c2)CC(=O)N3)ncc1C(F)(F)F)S(C)(=O)=O + O=C(CCCCCCC(=O)Nc1ccccc1)NO [Vorinostat] (partner 1 µM)
In short: (§1)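 Cells from lung cancer lines were seeded into 1536-well plates and, one day later, dosed by pin tool. Treatments were either a single drug or a fixed dose of an anchor drug with five library-drug doses (not always all listed) in √10 steps. After 5 days, nuclei were stained in a one-step fixation (final 0.05% Triton X-100, 1% formaldehyde, 1 ug/ml Hoechst) and counted on 4× images, and relative viability is the treated-to-vehicle nuclei ratio, as the median of duplicate plates.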

[2] = compound: CN(c1ncccc1CNc1nc(Nc2ccc3c(c2)CC(=O)N3)ncc1C(F)(F)F)S(C)(=O)=O + CC(=O)c1c(C)c2cnc(Nc3ccc(N4CCNCC4)cn3)nc2n(C2CCCC2)c1=O [Palbociclib] (partner 0.5 µM)
In short: as §1

[3] = compound: CN(c1ncccc1CNc1nc(Nc2ccc3c(c2)CC(=O)N3)ncc1C(F)(F)F)S(C)(=O)=O + Cc1nc(Nc2ncc(C(=O)Nc3c(C)cccc3Cl)s2)cc(N2CCN(CCO)CC2)n1 [Dasatinib] (partner 0.075 µM)
In short: as §1

[4] = compound: CN(c1ncccc1CNc1nc(Nc2ccc3c(c2)CC(=O)N3)ncc1C(F)(F)F)S(C)(=O)=O + Nc1nc2[nH]cc(CCc3ccc(C(=O)N[C@@H](CCC(=O)O)C(=O)O)cc3)c2c(=O)[nH]1 [Pemetrexed] (partner 0.2 µM)
In short: as §1

Cell Line	relative viability ([1]; first compound 0.01 µM)	relative viability ([1]; first compound 0.03162 µM)	relative viability ([1]; first compound 0.1 µM)	relative viability ([1]; first compound 0.3162 µM)	relative viability ([1]; first compound 1 µM)	relative viability ([2]; first compound 0.01 µM)	relative viability ([2]; first compound 0.03162 µM)	relative viability ([2]; first compound 0.1 µM)	relative viability ([2]; first compound 0.3162 µM)	relative viability ([2]; first compound 1 µM)	relative viability ([3]; first compound 0.01 µM)	relative viability ([3]; first compound 0.03162 µM)	relative viability ([3]; first compound 0.1 µM)	relative viability ([3]; first compound 0.3162 µM)	relative viability ([3]; first compound 1 µM)	relative viability ([4]; first compound 0.01 µM)	relative viability ([4]; first compound 0.03162 µM)	relative viability ([4]; first compound 0.1 µM)	relative viability ([4]; first compound 0.3162 µM)	relative viability ([4]; first compound 1 µM)
201T	0.971	0.98	0.915	0.9	0.923	0.35	0.348	0.354	0.343	0.323	0.602	0.55	0.45	0.538	0.517	0.336	0.333	0.383	0.34	0.316
A-427	0.892	0.874	0.878	0.903	0.859	0.529	0.491	0.516	0.546	0.491	0.628	0.864	0.713	0.823	0.725	0.939	0.956	0.932	0.955	0.948
ABC-1	1.02	0.948	1.28	1.11	1.27	0.608	0.609	0.725	0.814	0.676	0.574	0.633	0.559	0.54	0.587					
BEN	0.546	0.625	0.578	0.544	0.554	0.461	0.472	0.48	0.499	0.434	0.319	0.312	0.272	0.289	0.267	0.771	0.753	0.777	0.809	0.671
CAL-12T	0.91	0.854	0.726	0.767	0.708	0.44	0.341	0.416	0.407	0.366	0.35	0.213	0.268	0.191	0.136	1.24	1.12	1.25	1.36	0.982
COR-L23	0.471	0.392	0.327	0.305	0.295	0.265	0.262	0.308	0.239	0.234	0.458	0.524	0.483	0.413	0.323	0.202	0.18	0.211	0.205	0.203
COR-L 105	0.813	0.865	0.873	0.855	0.619	0.426	0.411	0.41	0.427	0.376	0.274	0.25	0.343	0.282	0.288	1.09	1.06	1.07	1.11	1.05
ChaGo-K-1	0.756	0.708	0.778	0.816	0.738	0.942	0.955	0.917	0.785	0.877	0.656	0.531	0.52	0.614	0.531	0.252	0.254	0.264	0.258	0.246
EKVX	0.638	0.746	0.638	0.627	0.494	0.369	0.372	0.359	0.285	0.352	0.464	0.425	0.447	0.411	0.347	0.436	0.413	0.347	0.401	0.382
EMC-BAC-2	0.46	0.229	0.446	0.44	0.443	0.494	0.503	0.518	0.511	0.491	0.247	0.308	0.279	0.295	0.271	0.427	0.471	0.433	0.472	0.45
EPLC-272H	0.546	0.23	0.408	0.564	0.263	0.366	0.357	0.358	0.353	0.299	0.338	0.27	0.218	0.209	0.135	0.332	0.349	0.375	0.345	0.313
H3255	0.881	0.931	0.767	0.796	0.743	0.312	0.316	0.345	0.327	0.295	0.368	0.347	0.356	0.385	0.378	0.647	0.585	0.541	0.614	0.549
HARA	0.569	0.573	0.55	0.516	0.432	0.211	0.276	0.231	0.203	0.247	0.228	0.17	0.19	0.201	0.217	0.255	0.248	0.199	0.258	0.223
HCC-15	0.79	0.796	0.741	0.77	0.675	0.709	0.747	0.65	0.609	0.583	0.541	0.602	0.497	0.428	0.408	0.22	0.237	0.218	0.21	0.215
HCC-44	1.1	1.06	1.13	1.14	1.1	0.83	0.953	0.943	0.907	0.867						0.668	0.622	0.639	0.65	0.611
HCC-78	0.526	0.47	0.431	0.414	0.403	0.419	0.46	0.462	0.487	0.408	0.312	0.33	0.325	0.256	0.296	0.907	0.922	0.921	0.922	0.929
HCC-366	0.412	0.394	0.365	0.366	0.295	0.41	0.391	0.342	0.336	0.316	0.541	0.904	0.598	0.644	0.687	0.219	0.172	0.164	0.172	0.186
HCC-827	0.923	0.861	0.806	0.954	0.783	0.453	0.462	0.503	0.545	0.437	0.191	0.185	0.115	0.107	0.109	0.248	0.269	0.257	0.294	0.313

Cell Line	relative viability ([1]; first compound 0.01 µM)	relative viability ([1]; first compound 0.03162 µM)	relative viability ([1]; first compound 0.1 µM)	relative viability ([1]; first compound 0.3162 µM)	relative viability ([1]; first compound 1 µM)	relative viability ([2]; first compound 0.01 µM)	relative viability ([2]; first compound 0.03162 µM)	relative viability ([2]; first compound 0.1 µM)	relative viability ([2]; first compound 0.3162 µM)	relative viability ([2]; first compound 1 µM)	relative viability ([3]; first compound 0.01 µM)	relative viability ([3]; first compound 0.03162 µM)	relative viability ([3]; first compound 0.1 µM)	relative viability ([3]; first compound 0.3162 µM)	relative viability ([3]; first compound 1 µM)	relative viability ([4]; first compound 0.01 µM)	relative viability ([4]; first compound 0.03162 µM)	relative viability ([4]; first compound 0.1 µM)	relative viability ([4]; first compound 0.3162 µM)	relative viability ([4]; first compound 1 µM)
HOP-62	0.759	0.769	0.574	0.732	0.596	0.469	0.444	0.374	0.412	0.39	0.616	0.512	0.5	0.301	0.301	0.34	0.337	0.289	0.418	0.28
IA-LM	0.991	1.12	0.801	0.859	0.86															
LC-2-ad	0.739	0.756	0.674	0.635	0.584	0.523	0.451	0.522	0.473	0.463	0.414	0.484	0.492	0.399	0.335	0.283	0.3	0.274	0.285	0.274
LCLC-97TM1	0.644	0.82	0.609	0.751	0.586	0.217	0.176	0.171	0.18	0.158	0.727	0.794	0.815	0.773	0.722	0.149	0.164	0.125	0.133	0.13
LCLC-103H	0.852	0.725	0.732	0.771	0.769	0.499	0.428	0.5	0.471	0.484	0.47	0.36	0.481	0.442	0.332	0.476	0.474	0.488	0.541	0.463
LK-2	0.215	0.314	0.269	0.218	0.309	0.784	0.723	0.666	0.662	0.717	0.316	0.293	0.269	0.312	0.27	0.309	0.28	0.252	0.251	0.29
LOU-NH91	0.957	0.99	0.852	0.907	0.976	0.521	0.512	0.534	0.52	0.492	0.56	0.526	0.491	0.501	0.448	0.423	0.368	0.375	0.382	0.338
LU99A	0.531	0.526	0.571	0.635	0.531	0.406	0.517	0.465	0.411	0.448	0.63	0.529	0.378	0.254	0.267	0.25	0.156	0.184	0.203	0.178
LXF-289	0.887	0.787	0.782	0.697	0.792	0.63	0.592	0.567	0.639	0.582	0.187	0.181	0.129	0.12	0.121	1.03	0.829	0.864	0.804	0.871
NCI-H23	0.659	0.594	0.633	0.714	0.662	0.581	0.538	0.549	0.618	0.455	0.78	0.697	0.882	0.835	0.719	0.691	0.618	0.779	0.62	0.605
NCI-H322M	0.883	0.875	0.916	0.97	0.98	0.481	0.503	0.529	0.475	0.488	0.205	0.178	0.223	0.199	0.219	0.615	0.606	0.651	0.635	0.714
NCI-H358	0.65	0.704	0.692	0.573	0.421	0.135	0.113	0.145	0.119	0.0943	0.202	0.15	0.137	0.22	0.167	0.148	0.164	0.169	0.177	0.156
NCI-H596	0.586	0.616	0.566	0.557	0.69						0.558	0.623	0.54	0.608	0.5	0.425	0.466	0.503	0.469	0.605
NCI-H727	1.26	1.29	1.23	1.08	1.34	0.681	0.607	0.651	0.684	0.688	0.363	0.287	0.271	0.272	0.264					
NCI-H1563											0.458	0.422	0.429	0.372	0.385	0.815	0.772	0.84	0.772	0.773
NCI-H1648	0.336	0.493	0.471	0.292	0.413	0.264	0.274	0.224	0.242	0.207						0.66	0.707	0.604	0.694	0.422
NCI-H1792						0.627	0.783	0.63	0.637	0.602	0.803	0.841	0.623	0.581	0.55	0.903	0.995	0.922	0.752	0.867
